From article PMC6832141, “Synthesis and Cyclooxygenase Inhibition of Sulfonamide-Substituted (Dihydro)Pyrrolo[3,2,1-hi]indoles and Their Potential Prodrugs” (Molecules, 2019)

Experiments:
[1] = Lipophilicity, logD7.4 by HPLC method (Donovan and Pescatore); assay type: physicochemical; settings: HPLC column ODP-50 4B (Shodex Asahipak 50 × 4.6 mm); pH 7.4, HPLC system 2, MeOH/PBS gradient
Protocol: The lipophilicity of all synthesized compounds was determined as logD7.4HPLC value (Table 1) using an HPLC method originally described by Donovan and Pescatore.
Column chromatography was performed using silica gel (mesh size 40–63 µm). Thin-layer chromatography (TLC) was performed on silica gel F-254 aluminum plates and visualized using UV (254 nm/366 nm). Analytical HPLC analysis was carried out with the following systems: (system 1) Agilent 1200 HPLC (Santa Clara, CA, USA; pump G1311A, autosampler G1329A, column oven G1316A, degasser G1322A, UV detector G1315D, γ detector Gabi Star (Raytest), Luna C18 column (Phenomenex, 250 × 4.6 mm), flow rate = 1 mL/min, isocratic eluent (MeCN/0.1% TFA in H2O 70/30 (v/v)); (system 2) Agilent 1100 HPLC (Santa Clara, CA, USA; binary pump G1312A, autosampler G1313A, column oven G1316A, degasser G1322A, UV detector G1314A, γ detector Gabi Star (Raytest, Straubenhardt, Germany); column ODP-50 4B (Shodex Asahipak 50 × 4.6 mm); eluent: MeOH/PBS (10 mM, pH 7.4) gradient t0 min 30/70 - t25 min 95/5 - t27 min 95/5 - t28 min 30/70 - t40 min 30/70, flow rate = 0.6 mL/min; (system 3) waters UPLC I-Class (Milford, MA, USA; binary gradient pump BSM, autosampler FTN, column manager CM, and diode array detector PDAeλ coupled to Waters Xevo TQ-S), column Aquity UPLC® BEH C18 column (waters, 100 × 2.1 mm, 1.7 µm, 130 Å), eluent: (A): 0.1% acetic acid in MeCN/MeOH 1/1/(B): 0.1% acetic acid in H2O; flow rate 0.4 mL/min), gradient: t0 min 45/55 - t0.5 min 45/55 - t5.5 min 95/5 - t7.0 min 95/5 - t8.0 min 45/55 – t8.5 min 45/55; (system 4) column (Kinetex C-18 (Phenomenex 50 × 2.1 mm, 1.7 µm, 100 Å), Shimadzu Nexera X2 UHPLC system (Kyoto, Japan; degasser DGU-20A3R and DGU-20A5R, pump LC-30AD, autosampler SIL-30AC, column oven CTO-20AC with two column switching valves FCV-14AH, diode array detector SPD-M30A, γ detector Gabi Star (Raytest, Straubenhardt, Germany), communication bus module CBM-20A), eluent: (A): MeCN, (B): 0.1% trifluoroacetic acid in H2O; flow rate 0.5 mL/min), gradient: t0 min 25/75 - t0.3 min 25/75 - t4.0 min 75/25 - t4.5 min 95/5 - t5.5 min 95/5 - t6.0 min 25/75 – t7.5 min 25/75. The products were monitored by an UV detector at 254 nm and purity of all compounds exceeded 95% as determined by analytical HPLC analysis (system 1 or system 3), unless otherwise stated. Semi-preparative HPLC was performed using the following system: column (C-18 Jupiter Proteo (Phenomenex 250 × 21.1 mm, 4 µm, 90 Å), Shimadzu prominence modular HPLC system (Kyoto, Japan; degasser DGU-20A5R, 2× pump LC-20AR, autosampler SIL-20AC HT, column oven CTO-20AC with column switching valve, diode array detector SPD-M20A, fluorescence detector RF-20A, and fraction collector FRC-10A, communication bus module CBM-20A), isocratic eluent 0.1% TFA in MeCN/0.1% TFA in H2O 70/30, flow rate = 10 mL/min.
The logD7.4HPLC value was determined as previously reported by us utilizing an HPLC method originally described by Donovan and Pescatore[18]. […]

ovine COX-1 = biological target: T1, ovine COX-1 (Ovis aries, UniProt P05979); test: COX Fluorescent Inhibitor Screening Assay Kit (Cayman 700100), COX-1; assay type: biochemical; settings: values marked ** : compounds were screened at a concentration of 100 µM
T1 construct: purchased Cayman Chemical 700100
T1 sequence (P05979 25-600): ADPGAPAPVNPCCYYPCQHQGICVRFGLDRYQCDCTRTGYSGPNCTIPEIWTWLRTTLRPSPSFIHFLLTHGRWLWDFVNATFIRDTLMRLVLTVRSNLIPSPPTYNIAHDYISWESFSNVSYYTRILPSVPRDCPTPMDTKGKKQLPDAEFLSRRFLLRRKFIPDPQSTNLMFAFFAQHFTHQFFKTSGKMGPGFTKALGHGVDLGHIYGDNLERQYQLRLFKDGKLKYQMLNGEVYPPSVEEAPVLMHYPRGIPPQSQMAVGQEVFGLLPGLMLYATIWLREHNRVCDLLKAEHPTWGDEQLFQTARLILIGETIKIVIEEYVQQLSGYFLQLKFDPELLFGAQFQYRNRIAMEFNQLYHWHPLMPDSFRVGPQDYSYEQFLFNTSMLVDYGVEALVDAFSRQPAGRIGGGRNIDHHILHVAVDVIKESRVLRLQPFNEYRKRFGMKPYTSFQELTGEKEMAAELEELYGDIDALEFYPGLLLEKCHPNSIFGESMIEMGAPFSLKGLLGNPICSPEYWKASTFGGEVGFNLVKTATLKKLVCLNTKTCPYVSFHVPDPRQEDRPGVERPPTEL

human COX-2 = biological target: T2, human COX-2 (Homo sapiens, UniProt P35354); test: COX Fluorescent Inhibitor Screening Assay Kit (Cayman 700100), COX-2; assay type: biochemical; settings: for SI (selectivity index): SI = IC50 (COX-1)/IC50 (COX-2); for IC50: human COX-2, values marked ** : compounds were screened at a concentration of 100 µM
T2 construct: purchased Cayman Chemical 700100
T2 sequence (P35354 18-604): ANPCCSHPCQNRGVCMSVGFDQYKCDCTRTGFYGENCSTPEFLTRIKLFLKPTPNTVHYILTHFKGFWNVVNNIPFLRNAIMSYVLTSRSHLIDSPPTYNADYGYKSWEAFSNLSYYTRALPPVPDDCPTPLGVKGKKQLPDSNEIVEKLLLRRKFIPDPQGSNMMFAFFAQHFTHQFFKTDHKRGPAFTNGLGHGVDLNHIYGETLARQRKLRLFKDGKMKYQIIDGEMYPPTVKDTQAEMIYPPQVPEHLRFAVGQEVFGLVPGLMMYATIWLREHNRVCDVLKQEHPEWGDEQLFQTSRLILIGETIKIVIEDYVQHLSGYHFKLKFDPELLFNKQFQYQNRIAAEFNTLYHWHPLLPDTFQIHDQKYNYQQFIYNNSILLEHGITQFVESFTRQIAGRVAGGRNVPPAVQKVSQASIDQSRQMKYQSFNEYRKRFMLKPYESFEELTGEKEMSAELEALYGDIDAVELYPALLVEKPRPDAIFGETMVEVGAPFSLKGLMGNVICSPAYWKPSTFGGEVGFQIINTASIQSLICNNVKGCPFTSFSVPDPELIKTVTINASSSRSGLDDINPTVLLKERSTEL

Row | Compound | chromatographic logD [1] | IC50 (ovine COX-1) | SI (selectivity index) (human COX-2) | IC50 (human COX-2)
1 | NS(=O)(=O)c1ccc(-c2c(-c3ccccc3)c3cccc4c3n2CC4)cc1 [1a, 5-Phenyl-4-[4-(sulfamoyl)phenyl]-1,2-dihydropyrrolo[3,2,1-hi]indole] | 4.44 | 38 µM | 355 | 0.107 µM
2 | Cc1ccc(-c2c(-c3ccc(S(N)(=O)=O)cc3)n3c4c(cccc24)CC3)cc1 [1b, 4-[4-(Sulfamoyl)phenyl]-5-(p-tolyl)-1,2-dihydropyrrolo[3,2,1-hi]indole] | 4.56 | 59.9 µM | 237 | 0.253 µM
3 | NS(=O)(=O)c1ccc(-c2c(-c3ccc(Cl)cc3)c3cccc4c3n2CC4)cc1 [1c, 5-(4-Chlorophenyl)-4-[4-(sulfamoyl)phenyl]-1,2-dihydropyrrolo[3,2,1-hi]indole] | 4.9 | 15.3 µM | 144 | 0.106 µM
4 | NS(=O)(=O)c1ccc(-c2c(-c3ccc(F)cc3)c3cccc4c3n2CC4)cc1 [1d, 5-(4-Fluorophenyl)-4-[4-(sulfamoyl)phenyl]-1,2-dihydropyrrolo[3,2,1-hi]indole] | 4.53 | 7.8 µM | 85 | 0.092 µM
5 | CCC(=O)NS(=O)(=O)c1ccc(-c2c(-c3ccccc3)c3cccc4c3n2CC4)cc1 [3a, N-{[4-(5-phenyl-1,2-dihydropyrrolo[3,2,1-hi]indol-4-yl)phenyl]sulfonyl}propionamide] | 2.05 | > 100 µM |  | > 100 µM
6 | CCC(=O)NS(=O)(=O)c1ccc(-c2c(-c3ccc(C)cc3)c3cccc4c3n2CC4)cc1 [3b, N-({4-[5-(p-tolyl)-1,2-dihydropyrrolo[3,2,1-hi]indol-4-yl]phenyl}sulfonyl)propionamide] | 2.31 | > 100 µM |  | > 100 µM
7 | CCC(=O)NS(=O)(=O)c1ccc(-c2c(-c3ccc(Cl)cc3)c3cccc4c3n2CC4)cc1 [3c, N-({4-[5-(4-chlorophenyl)-1,2-dihydropyrrolo[3,2,1-hi]indol-4-yl]phenyl}sulfonyl)propionamide] | 2.49 | > 100 µM | >3.8 | 26.4 µM
8 | CCC(=O)NS(=O)(=O)c1ccc(-c2c(-c3ccc(F)cc3)c3cccc4c3n2CC4)cc1 [3d, N-({4-[5-(4-fluorophenyl)-1,2-dihydropyrrolo[3,2,1-hi]indol-4-yl]phenyl}sulfonyl)propionamide] | 2.2 | > 100 µM |  | > 100 µM

Continued, values first:

Row | chromatographic logD [1] | IC50 (ovine COX-1) | SI (selectivity index) (human COX-2) | IC50 (human COX-2) | Compound
9 | 2.24 |  |  |  | CCC(=O)NS(=O)(=O)c1ccc(-c2c(-c3ccccc3)c3cccc4ccn2c43)cc1 [4a, N-{[4-(1-phenylpyrrolo[3,2,1-hi]indol-2-yl)phenyl]sulfonyl}propionamide]
10 | 2.48 | > 100 µM | >2.9 | 33.9 µM | CCC(=O)NS(=O)(=O)c1ccc(-c2c(-c3ccc(C)cc3)c3cccc4ccn2c43)cc1 [4b, N-({4-[1-(p-tolyl)pyrrolo[3,2,1-hi]indol-2-yl]phenyl}sulfonyl)propionamide]
11 | 2.6 | > 100 µM | >9.1 | 11 µM | CCC(=O)NS(=O)(=O)c1ccc(-c2c(-c3ccc(Cl)cc3)c3cccc4ccn2c43)cc1 [4c, N-({4-[1-(4-chlorophenyl)pyrrolo[3,2,1-hi]indol-2-yl]phenyl}sulfonyl)propionamide]
12 | 2.3 | > 100 µM | >3.8 | 26.5 µM | CCC(=O)NS(=O)(=O)c1ccc(-c2c(-c3ccc(F)cc3)c3cccc4ccn2c43)cc1 [4d, N-({4-[1-(4-fluorophenyl)pyrrolo[3,2,1-hi]indol-2-yl]phenyl}sulfonyl)propionamide]
